What was measured:
[1] = system: activated sludge from the urban STEP of St-Fons; assay: Chemostat biological pilot, reduction of activated sludge production (flash mixing); conditions: 2.9 ppm, 3 months injection
Text: Detection of the reduction of activated sludge by an organophosphonium derivative in a Chemostat® biological pilot.
Tests on biological pilots continuously fed with synthetic effluent dealt with the molecule of Ex2 (Example 2 above), show significant uncoupling effects on the reduction of sludge production. The biological pilots have a volume of 5 liters and are continuously aerated; a purge of the latter is made everyday (except on weekends) in order to obtain a sludge age of about 7 days. The biological pilots were seeded with activated sludge from the urban STEP of St-Fons (France). After a short acclimatization period of the sludge, the treatment with the molecule Ex2 was carried out according to the flash mixing method also described in Example 1 of WO 2004/113236 cited as a reference.
An experiment, for which the total period of injection of the uncoupling product according to the flash mixing method lasted for 3 months, gave the following results:
A complementary experiment, this time using two different grades of the compound Ex2 of Example 2 above, designated as EX21 and EX22a hereafter, gave the following results over a 1 month injection period: […]

strain Schinella granuli = assay: Oxytop respirometry screening test (oxygen overconsumption = uncoupling); assay type: cell-based
Text: In order to evaluate the reduction in sludge production by an uncoupling chemical agent in respirometry (in order to measure oxygen overconsumption, a characteristic signature of the effects of an uncoupling agent), the oxytop® test technique is used containing a synthetic medium and bacterial strains particularly sensitive to uncoupling agents.
The method and the apparatus used are those described in Example 3 of WO 2004/113236 cited as a reference. The strain Schinella granuli was used as an inoculum in this methodology (which differs from Example 3 of WO 2004/113236 which used activated sludge).
They are expressed as an uncoupling percentage relatively to the control (not comprising any uncoupling agent). This means that for Ex2 at 0.05 mg/l, we have an oxygen overconsumption of 18% relatively to the control not comprising any uncoupling agent. THPS (tetrakis(hydromethyl)phosphonium sulfate) produces uncoupling effects in the oxitop® respirometry tests of 16±8% for a rated concentration of 3 ppm, the 95% confidence interval of THPS in terms of uncoupling factor being, values computed from results obtained in 26 Oxitop® tests.

## O=S(=O)([O-])[O-].OC[P+](CO)(CO)CO.OC[P+](CO)(CO)CO [THPS, tetrakis(hydromethyl)phosphonium sulfate]
[1]
  Growth rate: 0.171 g of MLSS/g of removed COD
[1]; vs untreated control
  Reduction in growth rate: 9.0%
  Reduction in sludge production: 13.6%
Strain Schinella granuli; 3 ppm (rated concentration), THPS: average over 26 tests
  uncoupling percentage relatively to the control (oxygen overconsumption): 16±8%
Strain Schinella granuli; 3 ppm, computed from 26 Oxitop tests
  95% confidence interval in terms of uncoupling factor: 10-22
